We go through 9 compounds from publication PMC12518634, “The noncanonical function of liver-type phosphofructokinase potentiates the efficacy of HDAC inhibitors in cancer” (Signal Transduction and Targeted Therapy, 2025).

pEC50: −log10 of the molar value. Like-named read-outs stand apart in the source and are kept apart here.

The subject of one experiment is 1405R3. The experiment can be described thus: High-throughput drug screen, CellTiter-Glo viability, 72 h. The format is cell-based, human. Also on record: AUC: scale not given here. Conditions: 1405R3 DSRT analysis; for AUC: area under the dose-response curve; for MIN: lower asymptote of fitted dose-response curve; for SLOPE: slope of fitted dose-response curve; for pEC50: CellTiter-Glo viability, 72 h, fitted dose-response curve, Min.Conc.tested 1, Max.Conc.tested 10000, GI50, read-out: EC50. The method, boiled down:
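Responses are drug sensitivity scores (efficacy cutoff ≥10), fitted from CellTiter-Glo luminescence. Each drug was given at five concentrations (10 to 0.001 μM, tenfold steps) in duplicate for 72 h. Cells were plated at 3000/well 24 h before dosing.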
Background: ATP-based viability assays read luminescence as a measure of living cells.

A further experiment has as its system 783C-6. The experiment is described as above. The format is cell-based, human. Further details: AUC: scale not given here. Conditions: for AUC: area under the dose-response curve; for pEC50: 72 h, read-out: EC50. A digest of the protocol: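 Cholangiocarcinoma cells were seeded at 3000/well in 384-well plates and dosed after 24 h. Drugs were tested at 10, 1, 0.1, 0.01 and 0.001 μM in duplicate for 72 h, with viability read by CellTiter-Glo luminescence.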

Setting [1] is: 783C-6 cells, DSS of DSRT analysis.
Setting [2] is: 783C-6 cells, minimum of dose-response curve.
Where [3] appears, read: 783C-6 cells, slope of fitted dose-response curve.
Where [4] appears, read: 783C-6 DSRT analysis, DSS calculated from the dose-response curve.
Where [5] appears, read: 783C-6 DSRT analysis, MIN of the fitted dose-response curve.

As for `CCCOc1ccc(/C=C2\SC(=O)NC2=O)cc1` [SMI-16a], the AUC in the experiment with 1405R3 turned out to be 0.1; in the experiment with 783C-6 (783C-6 cells) it was 5.7. The DSS in the experiment on 1405R3 (drug sensitivity score) and with 783C-6 (setting [1]) was 0 in each case. Besides, the MIN in the experiment with 1405R3 worked out at 100; in the experiment with 783C-6 (setting [2]) it was 91.3. For the same compound, the SLOPE was -0.1 in the experiment on 1405R3 and -0.5 in the experiment with 783C-6 (setting [3]).

With `COc1cc2nc(N3CCCC3)nc(NCCCCCN3CCCC3)c2cc1OC` [UNC0379], the AUC amounted to 39.7 with 1405R3 and 30.1 in the experiment on 783C-6 (783C-6 cells). The DSS turned out to be 1.9 in the experiment with 1405R3 (drug sensitivity score) and 3.2 in the experiment on 783C-6 (setting [1]). Further, the MIN in the experiment on 1405R3 was found to be 76.2; in the experiment on 783C-6 (setting [2]), 55.3. Besides, the results for the SLOPE with 1405R3 and with 783C-6 (setting [3]) were -0.4 and -2.5, respectively.

`CS(=O)(=O)CCNCc1ccc(-c2ccc3ncnc(Nc4ccc(OCc5cccc(F)c5)c(Cl)c4)c3c2)o1` [Lapatinib]: the DSS in the experiment on 1405R3 (DSS) and in the experiment with 783C-6 (setting [4]) was 0 each time. Besides, the AUC in the experiment on 1405R3 came to 0; in the experiment with 783C-6 (783C-6 DSRT analysis) it was 2. Besides, the MIN stood at 99.9 in the experiment with 1405R3 and 93.5 in the experiment with 783C-6 (setting [5]).

For the compound `CCS(=O)(=O)N1CCC([C@@H](C)n2c(C)c(C(=O)NCc3c(OC)cc(C)[nH]c3=O)c3ccccc32)CC1` [CPI-169], the DSS in the experiment with 1405R3 (DSS) and with 783C-6 (setting [4]) was 0 throughout. For the same compound, the AUC in the experiment with 1405R3 is 0.1; in the experiment with 783C-6 (783C-6 DSRT analysis), 1. Besides, the MIN worked out at 100 in the experiment with 1405R3 and 97.5 in the experiment with 783C-6 (setting [5]).

`O=C(O)CCCc1ccccc1` [Benzenebutyric acid]: the DSS in the experiment with 1405R3 (DSS) and in the experiment on 783C-6 (setting [4]) was 0 throughout. Also, the AUC with 1405R3 was found to be 2.3; in the experiment with 783C-6 (783C-6 DSRT analysis), 1.4. The MIN in the experiment on 1405R3 was found to be 94.7; with 783C-6 (setting [5]), 96.8. Moreover, the SLOPE in the experiment on 1405R3 was -0.7; in the experiment with 783C-6 (783C-6 DSRT analysis, slope of the fitted dose-response curve), -0.7.

The pEC50 is the negative decadic logarithm of the EC50, by convention in mol/L. On to `COc1ccccc1S(=O)(=O)Nc1ccc2c(c1)CN(C)C(=O)N2` [PFI-1], for which the negative logarithm of the EC50 (pEC50) in the experiment with 1405R3 was 5.87. Also, the AUC in the experiment on 1405R3 stood at 38.8; in the experiment on 783C-6 (783C-6 cells) it was 7.2. The DSS in the experiment with 1405R3 (drug sensitivity score) was 4.4; in the experiment on 783C-6 (setting [1]), 0. The values for the MIN in the experiment with 1405R3 and in the experiment on 783C-6 (setting [2]) were 55.4 and 94.7, respectively. The SLOPE in the experiment with 1405R3 and in the experiment on 783C-6 (setting [3]) was -2.5 in each case.

Turning to `C[C@@H]1O[C@@H](O[C@H]2[C@H](O[C@H]3[C@H](O[C@H]4CC[C@]5(C)[C@H]6CC=C7[C@@H]8CC(C)(C)CC[C@]8(C(=O)O)CC[C@@]7(C)[C@]6(C)CC[C@H]5C4(C)C)OC[C@H](O)[C@@H]3O)O[C@H](CO)[C@@H](O)[C@@H]2O)[C@H](O)[C@H](O)[C@H]1O` [Raddeanin A], the pEC50 with 1405R3 is 5.56; in the experiment with 783C-6 (783C-6 cells, DSRT analysis, CellTiter-Glo viability, concentrations tested 1 to 10000 (unit inferred), GI50) it was 5.54. The AUC came to 56.1 in the experiment with 1405R3 and 52.9 in the experiment on 783C-6 (783C-6 cells). The DSS with 1405R3 (drug sensitivity score) is given as 6.3; in the experiment with 783C-6 (setting [1]), 5.9. Further, the MIN in the experiment on 1405R3 amounted to 1.8; in the experiment with 783C-6 (setting [2]), 3.4. For the same compound, the SLOPE in the experiment on 1405R3 and with 783C-6 (setting [3]) was -2.5 throughout.

`Nc1ccccc1NC(=O)c1ccc(CNc2nccc(-c3cccnc3)n2)cc1` [Mocetinostat]: the results for the AUC with 1405R3 and in the experiment on 783C-6 (783C-6 cells) were 100.5 and 98.8, respectively. The DSS with 1405R3 (drug sensitivity score) worked out at 11.8; in the experiment on 783C-6 (setting [1]) it was 11.6. In addition, the MIN is 1.1 with 1405R3 and 4.8 with 783C-6 (setting [2]). Besides, the negative-log EC50 (pEC50) in the experiment with 1405R3 (Homo sapiens) is 6.02; with 783C-6 (Homo sapiens) it was 6.04.

For `COc1cc2c(NC3CCN(C(C)C)CC3)nc(N3CCC(F)(F)CC3)nc2cc1OCCCN1CCCC1` [UNC0642], the AUC with 1405R3 is 0.1; in the experiment with 783C-6 (783C-6 cells) it was 7.2. In addition, the DSS with 1405R3 (drug sensitivity score) and in the experiment on 783C-6 (setting [1]) was 0 throughout. For the same compound, the figures for the MIN with 1405R3 and in the experiment with 783C-6 (setting [2]) were 99.3 and 94, respectively.
